Reference: BindingDB's records for doi:10.1016/j.chembiol.2016.11.011 (McMaster University, 2017)

Target: 2''-aminoglycoside nucleotidyltransferase (Pseudomonas aeruginosa (g-Proteobacteria))
Assay: In Vitro ANT(2")-Ia Pyrophosphatase Assay
Experimental: In vitro ANT(2")-Ia pyrophosphatase assays were performed as described previously (Cox et al., 2015; Hirsch et al., 2014), with minor modifications. To improve compound solubility, Tween 20 was added to a final concentration of 0.01% (v/v) and compounds were added at a final concentration of 2% (v/v) DMSO. The enzyme ([…] reaction volume) was incubated with compound for 10 min at 25 °C, prior to initiation of the reaction with nucleotide. All inhibitory assays were performed with kanamycin B kept at Km (Cox et al., 2015; Hirsch et al., 2014).

Ki	SMILES
60 µM	CS(=O)(=O)CCNCc1ccc(-c2ccc3ncnc(Nc4ccc(OCc5ccccc5)c(Cl)c4)c3c2)o1
12.9 µM	[O-][S+]1CCN(Cc2ccc(-c3ccc4ncnc(Nc5ccc(OCc6ccccc6)c(Cl)c5)c4c3)o2)CC1 [(4-benzyloxy-3-chloro-phenyl)-{6-[5-(1-oxo-1lambda*4*-thiomorpholin-4-ylmethyl)-furan-2-yl]-quinazolin-4-yl}-amine]
